Values after ≈ are worked out from the molar mass of the structure shown.
Tests used:
[1] = tested on: multidrug resistant Pseudomonas aeruginosa MSC06120 strains; experiment: Minimum inhibitory concentrations for MSC06120 strains; format: cell-based; details: read-out: Minimum inhibitory concentration
[2] = tested on: Pseudomonas aeruginosa PA103 strains (ATCC29260); experiment: Enhancement of anti-Pseudomonas aeruginosa activity of gentamicin (viable count); format: cell-based; details: gentamicin 0.125 μg/ml plus PBS (negative control group), 4 hours at 37° C.
Protocol: Pseudomonas aeruginosa PA103 strains (ATCC29260) were shake cultured overnight at 37° C. in a Mueller-Hinton liquid medium and diluted to 1×10^5 cfu/ml with the same medium. Then, the strains were shake cultured again at 37° C. Two hours later, gentamicin was added at a concentration of 0.125 μg/ml. Likewise, to a negative control group, PBS was added at a concentration of 300 μg/ml. To antibody-added groups, rat anti-PA5158L1 IgG as the monoclonal antibody produced by the hybridoma deposited under the accession No. FERM-BP-10672, rat anti-PA5158L2 IgG as the IgG fraction purified from the KLH-conjugated peptide (SEQ ID No: 6)-immunized rat sera, and rat anti-PA5158 IgG as the IgG fraction purified from the PA5158 recombinant protein-immunized rat sera were added at each concentration of 300 μg/ml. Then, shake culture was carried out at 37° C. for 4 hours, and the number of viable strains in each group was measured.

Row | MIC [1] [µg/mL] | Molecule | Number of viable strains [2]
1 | 64 (≈ 109 µM) | NCC[C@H](O)C(=O)N[C@@H]1C[C@H](N)[C@@H](O[C@H]2O[C@H](CN)[C@@H](O)[C@H](O)[C@H]2O)[C@H](O)[C@H]1O[C@H]1O[C@H](CO)[C@@H](O)[C@H](N)[C@H]1O [amikacin] | –
2 | 32 (≈ 107 µM) | C[C@@H](O)[C@H]1C(=O)N2C(C(=O)O)=C(SCCN=CN)C[C@H]12 [imipenem] | –
3 | – | gentamicin | 5.4×10^6 cfu/ml

Row | Molecule | MIC [1] [µg/mL] | Number of viable strains [2]
4 | O=C(O)c1cn(C2CC2)c2cc(N3CCNCC3)c(F)cc2c1=O [ciprofloxacin] | > 256 | –

Source: patent US20090155279A1, “Pseudomonas Aeruginosa Outer Membrane Protein PA5158” (priority 2005, published 2009)
